Source: PMC9282233 (Proceedings of the National Academy of Sciences of the …, 2022)

Molecular target: Tsr (E. coli serine chemoreceptor) (Escherichia coli, UniProt P02942)
Test: in vivo FRET kinase assay
Type: cell-based

Sequence of Tsr (E. coli serine chemoreceptor) (P02942 whole entry): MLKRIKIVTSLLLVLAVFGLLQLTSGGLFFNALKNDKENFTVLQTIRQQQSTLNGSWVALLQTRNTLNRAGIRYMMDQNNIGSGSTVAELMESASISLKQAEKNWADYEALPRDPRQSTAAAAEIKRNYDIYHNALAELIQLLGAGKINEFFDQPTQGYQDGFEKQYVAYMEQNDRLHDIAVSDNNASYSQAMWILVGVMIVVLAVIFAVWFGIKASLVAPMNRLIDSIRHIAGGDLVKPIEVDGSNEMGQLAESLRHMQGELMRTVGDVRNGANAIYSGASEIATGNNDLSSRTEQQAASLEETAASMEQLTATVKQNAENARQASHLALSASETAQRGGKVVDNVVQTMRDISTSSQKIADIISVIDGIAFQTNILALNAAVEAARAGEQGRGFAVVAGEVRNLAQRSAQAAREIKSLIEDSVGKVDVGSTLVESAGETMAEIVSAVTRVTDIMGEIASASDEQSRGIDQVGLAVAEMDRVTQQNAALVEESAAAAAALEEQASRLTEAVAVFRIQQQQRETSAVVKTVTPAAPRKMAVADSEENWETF

IC50: 18 µM
SMILES: N[C@@H](CO)C(=O)O [serine]
